From ChEMBL document CHEMBL1201862, “PubChem BioAssay data set” (2004) come the findings set out here.

Data set [1] has as its target Tyrosine-protein phosphatase non-receptor type 12 (Homo sapiens, UniProt Q05209). The data set is described as follows: SAR Selectivity Analysis of small molecule inhibitors of PEST using pCAP in a fluorescence assay. [Related pubchem assays (depositor defined):AID1779, AID1784, AID2135]. Format: functional.
Data set [2] has as its target T1, Tyrosine-protein phosphatase non-receptor type 22 (Homo sapiens, UniProt Q9Y2R2).
T1 sequence (Q9Y2R2 whole entry): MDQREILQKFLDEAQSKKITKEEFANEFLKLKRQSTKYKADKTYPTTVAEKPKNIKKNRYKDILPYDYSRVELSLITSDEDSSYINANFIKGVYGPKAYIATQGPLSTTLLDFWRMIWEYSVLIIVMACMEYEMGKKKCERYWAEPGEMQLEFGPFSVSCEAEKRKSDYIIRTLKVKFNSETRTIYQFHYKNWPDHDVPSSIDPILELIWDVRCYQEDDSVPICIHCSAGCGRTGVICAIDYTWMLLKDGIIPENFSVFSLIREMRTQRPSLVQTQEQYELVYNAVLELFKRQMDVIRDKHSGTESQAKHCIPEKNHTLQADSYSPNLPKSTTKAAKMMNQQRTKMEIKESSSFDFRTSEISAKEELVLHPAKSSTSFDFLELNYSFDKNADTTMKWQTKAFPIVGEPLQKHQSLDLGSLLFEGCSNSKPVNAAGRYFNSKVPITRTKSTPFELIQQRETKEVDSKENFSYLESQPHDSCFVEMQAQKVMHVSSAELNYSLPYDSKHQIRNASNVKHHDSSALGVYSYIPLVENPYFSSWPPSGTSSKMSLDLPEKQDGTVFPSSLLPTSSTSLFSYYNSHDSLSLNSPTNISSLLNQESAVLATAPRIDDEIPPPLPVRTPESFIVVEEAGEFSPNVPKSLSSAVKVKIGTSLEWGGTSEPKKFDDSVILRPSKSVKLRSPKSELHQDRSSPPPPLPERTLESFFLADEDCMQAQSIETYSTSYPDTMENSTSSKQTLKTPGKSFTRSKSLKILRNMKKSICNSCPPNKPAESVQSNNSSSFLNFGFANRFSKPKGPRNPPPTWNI
The data set is described as follows: SAR LYP1 Fluorescent Assay using OMFP substrate for In Vitro dose response studies - Set 3. [Related pubchem assays (depositor defined):AID1779, AID1784, AID2140, AID2686]. It is filed as functional.

Data set [3] addresses T2, Tyrosine-protein phosphatase non-receptor type 7 (Homo sapiens, UniProt P35236).
T2 sequence (P35236 whole entry): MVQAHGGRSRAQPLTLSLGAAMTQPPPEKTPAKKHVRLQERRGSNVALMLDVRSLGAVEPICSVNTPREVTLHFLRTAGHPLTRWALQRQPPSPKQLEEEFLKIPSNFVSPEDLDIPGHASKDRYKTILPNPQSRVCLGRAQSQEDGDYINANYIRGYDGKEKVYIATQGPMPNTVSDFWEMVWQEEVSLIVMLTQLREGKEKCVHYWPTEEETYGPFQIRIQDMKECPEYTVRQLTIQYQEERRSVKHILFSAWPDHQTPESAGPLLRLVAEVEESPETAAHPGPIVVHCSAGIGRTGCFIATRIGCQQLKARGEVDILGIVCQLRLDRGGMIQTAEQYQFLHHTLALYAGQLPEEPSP
The data set is described as follows: redox-active compounds inhibiting HePTP phosphatase – biochemical, fluorescence, mechanism study (AID 2068). Format: functional.

The target of data set [4] is T2, Tyrosine-protein phosphatase non-receptor type 7. The data set is described as follows: inhibition of hematopoietic tyrosine phosphatase HePTP – biochemical, set 2, SAR follow-up (AID 449736). It is filed as functional.
In data set [5] the target is T1, Tyrosine-protein phosphatase non-receptor type 22. The data set is described as follows: inhibition of lymphoid tyrosine phosphatase LYP – biochemical, pCAP fluorogenic substrate, fluorescence, set 3, SAR follow-up (AID 449727). It is filed as functional.
In data set [6] the target is Dual specificity protein phosphatase 3 (Homo sapiens, UniProt P51452). The data set is described as follows: SAR VHR1 Fluorescent Assay for In Vitro dose response studies Set 2. [Related pubchem assays (depositor defined):AID1654, AID1661, AID1878]. Format: functional.
Sequence of Dual specificity protein phosphatase 3 (P51452 whole entry): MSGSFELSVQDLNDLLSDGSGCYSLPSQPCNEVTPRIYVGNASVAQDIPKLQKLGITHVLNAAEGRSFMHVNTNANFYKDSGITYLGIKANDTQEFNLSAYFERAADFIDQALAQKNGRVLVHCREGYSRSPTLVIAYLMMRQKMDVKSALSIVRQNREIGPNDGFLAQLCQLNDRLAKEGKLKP
Data set [7] deals with T3, Dual specificity protein phosphatase 6 (Rattus norvegicus, UniProt Q64346).
T3 sequence (Q64346 whole entry): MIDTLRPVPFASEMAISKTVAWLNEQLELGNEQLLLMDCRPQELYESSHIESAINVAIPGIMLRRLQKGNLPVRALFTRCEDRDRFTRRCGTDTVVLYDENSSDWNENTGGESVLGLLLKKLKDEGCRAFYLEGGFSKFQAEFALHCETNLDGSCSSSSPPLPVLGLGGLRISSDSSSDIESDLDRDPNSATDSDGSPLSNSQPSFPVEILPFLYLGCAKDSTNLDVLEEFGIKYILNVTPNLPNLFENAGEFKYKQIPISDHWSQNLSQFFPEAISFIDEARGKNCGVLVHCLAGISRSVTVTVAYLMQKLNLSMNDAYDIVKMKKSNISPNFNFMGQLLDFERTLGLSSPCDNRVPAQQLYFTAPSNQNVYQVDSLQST
It is filed as functional.

For data set [8], the system named is Streptococcus sp. 'group A'. The data set is described as follows: Streptococcus pyogenes SK(-)GAS viability under kanamycin – luminescence, BacTiterGlo, confirmation, counter-screen for streptokinase expression inhibitor project, dose response (AID 1900). It is filed as functional, organism-based.
For another data set, the target named is T4, Streptokinase A (Streptococcus pyogenes serotype M1, UniProt P10520).
T4 sequence (P10520 whole entry): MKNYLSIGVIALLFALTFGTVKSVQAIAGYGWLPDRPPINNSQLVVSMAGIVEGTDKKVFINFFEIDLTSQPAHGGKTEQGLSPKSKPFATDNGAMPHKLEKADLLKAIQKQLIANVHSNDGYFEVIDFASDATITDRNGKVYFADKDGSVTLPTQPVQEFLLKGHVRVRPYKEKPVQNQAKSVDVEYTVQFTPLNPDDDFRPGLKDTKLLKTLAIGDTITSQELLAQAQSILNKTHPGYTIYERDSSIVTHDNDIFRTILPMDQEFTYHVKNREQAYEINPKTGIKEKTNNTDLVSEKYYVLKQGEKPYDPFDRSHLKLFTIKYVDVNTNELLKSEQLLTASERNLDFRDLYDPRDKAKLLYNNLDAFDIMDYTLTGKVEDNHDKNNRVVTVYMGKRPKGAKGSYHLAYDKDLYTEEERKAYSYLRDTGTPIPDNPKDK
The data set is described as follows: viability-normalized secreted streptokinase activity reduction – plasminogen activation absorbance, OD405, dose response (AID 1914).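 Further: secreted streptokinase activity via plasminogen activation per viability signal from cell pellet.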 It is filed as functional, Streptococcus pyogenes M1 GAS.

Data set [9] concerns the target T5, G-protein coupled receptor 55 (Homo sapiens, UniProt Q9Y2T6). The data set is described as follows: inhibition of LPI-stimulated GPR55 beta-arrestin translocation – imaging, U2OS, beta-arrestin-GFP, LPI agonist, primary screen (AID 2013).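 Further: antagonist potency measured as reduced agonist-driven arrestin aggregation.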 It is filed as functional.
The target of data set [10] is Peroxisome proliferator-activated receptor gamma/Nuclear receptor corepressor 2 (Homo sapiens, UniProt P37231+Q9Y618). The data set is described as follows: Counterscreen for NR2E3 inverse agonists: TR-FRET-based biochemical high throughput dose response assay to identify inverse agonists of the interaction between peroxisome proliferator-activated receptor gamma (PPARg) and nuclear receptor co-repressor 2 (NCOR2). Format: functional.

For data set [11], the target named is Photoreceptor-specific nuclear receptor (Homo sapiens, UniProt Q9Y5X4). The data set is described as follows: ligands suppressing NR2E3 nuclear receptor activity – biochemical, TR-FRET, dose response (AID 463256). It is filed as functional.
Sequence of Photoreceptor-specific nuclear receptor (Q9Y5X4 whole entry): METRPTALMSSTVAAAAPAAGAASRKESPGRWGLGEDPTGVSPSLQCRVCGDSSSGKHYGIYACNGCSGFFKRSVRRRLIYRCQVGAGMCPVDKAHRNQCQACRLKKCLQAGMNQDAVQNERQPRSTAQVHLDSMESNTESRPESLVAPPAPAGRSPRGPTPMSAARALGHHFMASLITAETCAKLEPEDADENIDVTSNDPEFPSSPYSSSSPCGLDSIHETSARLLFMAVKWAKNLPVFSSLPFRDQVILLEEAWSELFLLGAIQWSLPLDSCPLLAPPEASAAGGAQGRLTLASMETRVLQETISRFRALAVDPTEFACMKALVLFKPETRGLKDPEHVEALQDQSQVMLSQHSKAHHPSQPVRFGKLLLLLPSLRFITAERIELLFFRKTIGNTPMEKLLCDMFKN
Another data set deals with Streptococcus. The data set is described as follows: GAS UMAA2166 growth inhibition – luminescence, BacTiterGlo, counter-screen for streptokinase expression inhibitor project, dose response (AID 1915).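 Further: potency for reduction of bacterial viability or growth.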 It is filed as functional, organism-based.
The target in data set [12] is T6, Cannabinoid receptor 1 (Homo sapiens, UniProt P21554). The data set is described as follows: SAR analysis of antagonists of the Cannabinoid Receptor 1 using an Image-Based Assay - Set 2. [Related pubchem assays (depositor defined):AID2013, AID2026]. Format: functional.
T6 sequence (P21554 whole entry): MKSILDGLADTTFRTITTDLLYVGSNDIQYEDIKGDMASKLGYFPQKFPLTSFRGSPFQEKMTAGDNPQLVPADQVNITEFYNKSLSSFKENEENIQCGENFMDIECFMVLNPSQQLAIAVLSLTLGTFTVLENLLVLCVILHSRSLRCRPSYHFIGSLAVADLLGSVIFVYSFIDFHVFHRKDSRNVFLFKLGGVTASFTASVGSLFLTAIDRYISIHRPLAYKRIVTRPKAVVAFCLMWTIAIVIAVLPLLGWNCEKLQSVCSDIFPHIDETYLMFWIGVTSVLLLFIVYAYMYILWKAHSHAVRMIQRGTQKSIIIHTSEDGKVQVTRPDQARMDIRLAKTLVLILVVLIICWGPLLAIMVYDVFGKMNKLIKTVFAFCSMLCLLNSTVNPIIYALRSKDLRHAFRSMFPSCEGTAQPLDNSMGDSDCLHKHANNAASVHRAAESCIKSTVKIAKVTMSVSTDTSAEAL
The target in data set [13] is T7, G-protein coupled receptor 35 (Homo sapiens, UniProt Q9HC97). The data set is described as follows: SAR analysis of Agonists of the GPR35 Receptor using an Image-Based Assay - Set 2. [Related pubchem assays (depositor defined):AID2013, AID2026]. Format: functional.
T7 sequence (Q9HC97 whole entry): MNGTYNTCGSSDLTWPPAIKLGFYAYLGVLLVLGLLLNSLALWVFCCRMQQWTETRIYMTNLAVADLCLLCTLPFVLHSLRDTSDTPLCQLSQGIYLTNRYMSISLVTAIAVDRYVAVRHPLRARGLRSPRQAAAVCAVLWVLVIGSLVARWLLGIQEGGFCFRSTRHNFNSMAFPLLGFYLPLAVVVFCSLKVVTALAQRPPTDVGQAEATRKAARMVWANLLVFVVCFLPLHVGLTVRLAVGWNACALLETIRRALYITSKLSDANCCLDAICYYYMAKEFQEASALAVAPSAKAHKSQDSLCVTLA
Data set [14] has as its target T8, Cannabinoid receptor 2 (Homo sapiens, UniProt P34972). The data set is described as follows: SAR analysis of antagonists of the Cannabinoid Receptor 2 using an Image-Based Assay. [Related pubchem assays (depositor defined):AID2013, AID2026]. Format: functional.
Data set [15] deals with T6, Cannabinoid receptor 1. The data set is described as follows: SAR analysis of agonists of the Cannabinoid Receptor 1 using an Image-Based Assay - Set 2. [Related pubchem assays (depositor defined):AID2013, AID2026]. It is filed as functional.
Data set [16] addresses T7, G-protein coupled receptor 35. The data set is described as follows: SAR analysis of Antagonists of the GPR35 Receptor using an Image-Based Assay - Set 3. [Related pubchem assays (depositor defined):AID2013, AID2026]. It is filed as functional.
In data set [17] the target is T5, G-protein coupled receptor 55. The data set is described as follows: blockade of LPI-induced GPR55 arrestin translocation – imaging, U2OS, beta-arrestin-GFP, LPI agonist, set 2, SAR follow-up (AID 2820). It is filed as functional.
The target in data set [18] is T8, Cannabinoid receptor 2. The data set is described as follows: SAR analysis of agonists of the Cannabinoid Receptor 2 using an Image-Based Assay. [Related pubchem assays (depositor defined):AID2013, AID2026]. Format: functional.
The target of another data set is Cytochrome P450 2D6 (Homo sapiens, UniProt P10635).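 Further: CYP2D6 member of a cytochrome P450 panel assay.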
Sequence of Cytochrome P450 2D6 (P10635 whole entry): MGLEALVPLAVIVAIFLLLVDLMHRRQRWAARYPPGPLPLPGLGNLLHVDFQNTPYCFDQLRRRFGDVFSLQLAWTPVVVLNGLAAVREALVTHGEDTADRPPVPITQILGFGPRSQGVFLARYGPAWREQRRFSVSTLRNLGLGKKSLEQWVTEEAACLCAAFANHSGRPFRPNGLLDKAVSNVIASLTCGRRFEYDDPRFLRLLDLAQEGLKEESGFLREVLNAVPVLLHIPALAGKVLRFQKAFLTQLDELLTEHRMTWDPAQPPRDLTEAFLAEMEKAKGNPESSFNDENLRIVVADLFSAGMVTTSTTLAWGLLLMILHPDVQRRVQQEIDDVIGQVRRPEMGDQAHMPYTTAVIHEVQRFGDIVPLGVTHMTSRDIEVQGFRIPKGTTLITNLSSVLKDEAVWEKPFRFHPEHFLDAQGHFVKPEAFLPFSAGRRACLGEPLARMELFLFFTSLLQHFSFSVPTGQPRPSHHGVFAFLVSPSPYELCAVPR
A further data set addresses Cytochrome P450 3A4 (Homo sapiens, UniProt P08684).

Active and inactive are the calls of the source.

T5 sequence (Q9Y2T6 whole entry): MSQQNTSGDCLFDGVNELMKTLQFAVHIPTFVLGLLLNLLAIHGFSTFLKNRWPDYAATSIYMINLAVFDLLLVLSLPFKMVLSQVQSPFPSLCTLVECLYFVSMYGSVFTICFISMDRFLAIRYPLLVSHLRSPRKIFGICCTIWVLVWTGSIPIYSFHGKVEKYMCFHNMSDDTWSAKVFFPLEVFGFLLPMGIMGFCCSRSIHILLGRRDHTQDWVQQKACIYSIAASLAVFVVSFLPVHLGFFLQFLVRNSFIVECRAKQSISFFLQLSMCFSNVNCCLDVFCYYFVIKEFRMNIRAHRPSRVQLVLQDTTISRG
T8 sequence (P34972 whole entry): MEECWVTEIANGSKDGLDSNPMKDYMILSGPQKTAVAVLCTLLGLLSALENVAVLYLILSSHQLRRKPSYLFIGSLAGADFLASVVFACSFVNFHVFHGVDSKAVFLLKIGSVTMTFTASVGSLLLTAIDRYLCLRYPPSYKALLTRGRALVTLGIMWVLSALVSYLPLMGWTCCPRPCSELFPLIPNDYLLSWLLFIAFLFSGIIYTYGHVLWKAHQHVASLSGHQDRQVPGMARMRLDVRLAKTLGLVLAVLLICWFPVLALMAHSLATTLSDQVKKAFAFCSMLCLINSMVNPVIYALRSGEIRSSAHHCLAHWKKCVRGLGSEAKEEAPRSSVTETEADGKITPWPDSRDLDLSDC
Sequence of Tyrosine-protein phosphatase non-receptor type 12 (Q05209 whole entry): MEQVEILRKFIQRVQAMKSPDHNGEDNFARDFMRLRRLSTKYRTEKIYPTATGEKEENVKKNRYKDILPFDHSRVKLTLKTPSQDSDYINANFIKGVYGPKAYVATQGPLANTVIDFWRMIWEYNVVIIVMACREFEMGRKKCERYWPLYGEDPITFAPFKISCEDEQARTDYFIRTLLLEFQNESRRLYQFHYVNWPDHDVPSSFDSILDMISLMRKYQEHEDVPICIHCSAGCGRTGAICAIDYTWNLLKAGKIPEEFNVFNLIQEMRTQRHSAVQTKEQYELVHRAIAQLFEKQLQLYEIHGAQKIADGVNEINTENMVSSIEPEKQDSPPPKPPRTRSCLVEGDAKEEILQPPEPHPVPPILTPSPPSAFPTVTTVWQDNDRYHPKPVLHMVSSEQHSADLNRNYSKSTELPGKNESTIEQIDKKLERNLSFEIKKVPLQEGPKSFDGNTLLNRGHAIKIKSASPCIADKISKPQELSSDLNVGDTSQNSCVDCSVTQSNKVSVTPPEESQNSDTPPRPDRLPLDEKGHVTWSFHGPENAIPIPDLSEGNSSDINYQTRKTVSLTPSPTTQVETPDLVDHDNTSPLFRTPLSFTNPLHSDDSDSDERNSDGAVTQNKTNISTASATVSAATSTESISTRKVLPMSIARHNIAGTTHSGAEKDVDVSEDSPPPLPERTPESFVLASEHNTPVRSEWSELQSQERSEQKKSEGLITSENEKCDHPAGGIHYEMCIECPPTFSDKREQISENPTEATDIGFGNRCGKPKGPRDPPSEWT
Sequence of Cytochrome P450 3A4 (P08684 whole entry): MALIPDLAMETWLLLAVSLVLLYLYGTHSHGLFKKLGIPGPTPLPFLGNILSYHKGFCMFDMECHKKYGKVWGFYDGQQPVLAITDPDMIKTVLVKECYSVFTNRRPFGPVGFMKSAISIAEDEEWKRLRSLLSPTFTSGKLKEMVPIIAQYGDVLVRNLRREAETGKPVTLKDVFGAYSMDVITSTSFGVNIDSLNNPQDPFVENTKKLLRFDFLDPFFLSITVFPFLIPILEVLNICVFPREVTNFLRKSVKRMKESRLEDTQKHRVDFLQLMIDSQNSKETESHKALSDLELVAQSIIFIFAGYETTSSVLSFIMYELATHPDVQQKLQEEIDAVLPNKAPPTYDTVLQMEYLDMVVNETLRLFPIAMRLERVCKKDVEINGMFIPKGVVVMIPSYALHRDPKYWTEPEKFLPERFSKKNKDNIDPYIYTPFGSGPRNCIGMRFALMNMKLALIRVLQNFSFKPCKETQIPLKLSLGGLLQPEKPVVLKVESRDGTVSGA

For `COc1cc(/C=C2/S/C(=N\c3cccc(Br)c3)NC2=O)ccc1OCC(=O)O`, the IC50 in data set [1] is 7.86 µM (active); in data set [2] it was 68.8 µM (active); in data set [3] it was 7.44 µM (active); in data set [4] it was 1.57 µM (active); in data set [5], 32 µM (active); in data set [6], > 100 µM (inactive). Besides, in [7], the IC50 was > 100 µM (inactive).

On to `Cc1nnc(-c2cccc(Br)c2)c2cn(-c3ccc(Br)cc3)nc12`, for which the concentration for a half-maximal effect (EC50) in data set [8] is 3.53 µM (active); on Streptokinase A it was 19.2 µM (active); in the data set with Streptococcus, 28.4 µM (active); in [13], > 32 µM (inactive); at Cannabinoid receptor 1 [15], > 32 µM (inactive); on Cannabinoid receptor 2 [18], > 32 µM (inactive). Besides, the IC50 in data set [9] is 915 nM (active); in data set [10] it was 14.5 µM (not active); in data set [11], 18.8 µM (not active); at Cannabinoid receptor 1 [12], 13.9 µM (inactive); on Cannabinoid receptor 2 [14], > 32 µM (inactive); in data set [16], > 32 µM (inactive). Also, the IC50 in data set [17] was 893 nM (active). Besides, the half-maximal activity concentration (AC50) was 12.6 µM (inconclusive) at Cytochrome P450 2D6 and “inconclusive” at Cytochrome P450 3A4.
